In assay [1] the test system is ligature-induced periodontal bone loss. As to the kind of experiment: Ligature-induced periodontitis model, periodontal bone loss. The assay is classed as in vivo, mice. To be noted: for inhibition of induction of bone loss relative to no-treatment: 1 μg microinjected in gingiva daily (FIG. 26a). The protocol: FIG. 26. Inhibition of bone loss by Del-1 and other treatments that block LFA-1 or IL-17. Ligature-induced periodontal bone loss was assessed in mice treated as follows: (a) 18-month-old (left) and 10-week-old mice (right) were microinjected in the gingiva with Del-1-Fc or Fc control (1 μg) or with anti-IL-17A mAb or isotype control (1 or 10 μg). (b) WT and Itgal^−/− mice received Del-1-Fc or Fc control as above. (c) LFA878 was locally administered at an equal molar concentration with Del-1-Fc (corresponding to 8.4 ng and 1 μg, respectively) or at the indicated higher doses. (d) Anti-LFA-1 or IgG2a control were microinjected at either 1 μg, as was Del-1-Fc, or at 10 μg. (e) Del-1-Fc, anti-LFA-1, anti-ICAM-1, ICAM-1-Fc and their controls were i.v. administered at 50 μg. Data are means±SD (n=5-6 mice per group) from one of two (a,c,e) or three (b,d) independent and representative experiments. Data represent % inhibition of bone loss, which was calculated using the formula: ([Bone loss in the absence of inhibitor−Bone loss in the presence of inhibitor]/Bone loss in the absence of inhibitor)×100. *P<0.05; **P<0.01. NS, not significant.
The ligature-induced periodontitis model was used to determine the efficacy of potential therapeutic interventions (see below). Specifically, bone loss was induced by tying a 5-0 silk ligature around the maxillary left second molar, placing the ligature in the gingival sulcus; this treatment induces bone loss in conventional (but not germ-free) mice due to massive bacterial accumulation in the ligated teeth (Graves (2008)). The contralateral molar tooth in each mouse was left unligated (baseline control). Bone loss was examined 5 days after placement of the ligatures, which remained in place in all mice during the experimental period. Using the VIA-170K system, bone measurements were performed on the ligated second molar (3 sites corresponding to mesial cusp, palatal groove, and distal cusp) and the affected adjacent regions (sites corresponding to distal cusp and distal groove of the first molar, and palatal cusp of the third molar). To calculate bone loss, the 6-site total CEJ-ABC distance for the ligated side of each mouse was subtracted from the 6-site total CEJ-ABC distance of the contralateral unligated side of the same mouse.
To determine its protective efficacy in ligature-induced periodontitis, Del-1 was used in the form of a fusion protein with the Fc region of human IgG1 (Del-1-Fc) (GenScript). Del-1-Fc (1 μg) was microinjected into the palatal gingiva of the ligated second maxillary molar, one day before placement of the ligature and every day thereafter until the day before sacrifice on day 5. In other experiments, Del-1-Fc was administered systemically by i.v. injection (50 μg), following the same timing schedule as above. The same protocols were used to determine the effect of local (or systemic) administration of mAbs to LFA-1 (clone M17/4, rat IgG2a; BioLegend), ICAM-1 (clone YN1, IgG2b; Biolegend), IL-17A (clone M210, rat IgG2a; Amgen), or IL-17F (clone 316016, rat IgG2a; R&D Systems). Recombinant mouse ICAM-1 fused to the Fc region of human IgG1 (ICAM-1-Fc) as well as an LFA-1 antagonist (LFA878; kindly provided by Novartis) (Weitz-Schmidt (2004)) were also used in bone loss inhibition experiments. Purified azide-free rat IgG2a or IgG2b (BioLegend) and recombinant human IgG1 Fc (R&D Systems) were used as controls for the mAbs and Del-1-Fc, respectively.

The subject of assay [2] is P. gingivalis (Pg)-induced bone loss. Briefly: P. gingivalis-induced periodontal bone loss mouse model. The assay is classed as in vivo, mice. To be noted: local gingival injections (FIG. 2C).
For assay [3], the system named is Del-1 expression in human endothelial cells. As to the kind of experiment: Del-1 mRNA expression in HUVEC stimulated with human IL-17A. In kind it is cell-based. An excerpt: FIG. 21. IL-17 downregulates Del-1 expression. (a) Gingival Del-1 mRNA expression in wild-type (WT) and IL17ra^−/− mice determined by qPCR. (b) Sagittal sections of interdental gingiva of WT and Il17ra^−/− mice were stained for Del-1; shown are representative fluorescent confocal images (upper row) and their overlays with corresponding DIC images (lower row). Bar, 50 μm; T, tooth; G, gingiva; S, sulcus. (c) The fluorescence intensities of these and additional representative images from independent mice (5 per group) were quantified using ImageJ analysis. (d) Anti-IL-17A mAb and IgG2a control were microinjected into the gingiva and Del-1 mRNA expression was determined by qPCR. (e) Gingival IL-17A mRNA expression was determined in young (8-10 weeks) and old (18 months) mice using qPCR. (f) Linear-regression analysis of Del-1 versus IL-17A expression in old mice. (g) Determination of Del-1 mRNA expression and MPO amounts in the gingiva of indicated BM chimeric mice (donor BM→lethally irradiated recipient). (h) HUVEC were stimulated with or without human IL-17A and Del-1 mRNA expression was quantified by qPCR (pooled data from four independent experiments). […]
Total RNA was extracted from excised gingival tissue or cultured cells using the PerfectPure RNA cell kit (5 Prime, Fisher) and quantified by spectrometry at 260 and 280 nm. […]

The test system of a further assay is human neutrophils. As to the kind of experiment: Transmigration assay of human neutrophils through HUVEC monolayer. To be noted: 5 μg/ml, towards IL-8 (20 ng/ml). The assay is classed as cell-based. As to the method: FIG. 14. LFA-1 dependence of Del-1 deficiency-associated inflammation and bone loss. (a) Twenty-week-old C57BL/6 wild-type (WT) mice or mice deficient in the indicated molecules were assessed for bone loss relative to 5-week-old WT mice (zero baseline); the dotted line indicates the bone heights of 20-week-old WT mice for ease of comparison. (b) Sagittal sections of interdental gingiva from the same mice were stained for Ly6G; shown are representative overlays of DIC and fluorescent confocal images. (c) The fluorescence intensities of these and additional representative images from independent mice (5 per group) were quantified using ImageJ analysis. (d) Dissected gingiva from the indicated mice were processed for ELISA determination of MPO protein (left) or qPCR determination of PGRP1 transcript abundance (right). (e) Transmigration of human neutrophils through an endothelial cell monolayer (HUVEC) towards IL-8 (20 ng/ml) in the bottom well was determined with or without soluble human Del-1 (5 μg/ml), BSA (5 μg/ml), anti-LFA-1 mAb (10 μg/ml) or IgG1 control (10 μg/ml). […]
Transmigration assays were performed as previously described (Ley (2007)), using 6.5-mm Transwells with an 8-μm pore size (Corning). […] After 60 min incubation at 37° C., the number of transmigrated cells in the lower compartment was measured (Ley (2007)). […]

On to `CC[C@H](C)C(=O)O[C@H]1C[C@@H](C)C=C2C=C[C@H](C)[C@H](CC[C@@H]3C[C@H](CC(=O)NC)N(Cc4ccc(O)c(OC)c4)C(=O)O3)[C@H]21` [LFA878, reference compound], for which the “protection against bone loss compared with Del-1-Fc” value in assay [1] (local, equal molar amounts (8.4 ng vs 1 μg Del-1-Fc) (FIG. 26c)) is reported as “less protective than Del-1-Fc”; in assay [1] (locally administered at 1 μg (FIG. 26c)), “almost (but not quite) comparable to Del-1-Fc”.

Turning to `O=C(NCc1cccc(O)c1)c1cc(Cl)c(C(=O)N[C@@H](CNC(=O)c2cc(O)cc(O)c2)C(=O)O)c(Cl)c1` [XVA143], the “P. gingivalis (Pg)-induced bone loss” value in assay [2] is listed as “inhibited”.

For the molecule “Del-1-Fc: Del-1 as a fusion protein with the Fc region of human IgG1 (GenScript); SEQ ID NO: 5”, the “inhibition of induction of bone loss relative to no-treatment” value is “≈ 80%” in assay [1] (10-week-old mice) and “inhibited” in assay [1] (18-month-old mice). Moreover, the “inhibition of bone loss” value in assay [1] (18-month old mice, microinjected in palatal gingiva daily from day -1 to day 4 (FIG. 7)) is on record as “significant inhibition of bone loss”. In assay [1] (Itgal−/− mice (LFA-1 deficient), local (FIG. 26b)), the “effect against bone loss” value is recorded as “minor, but not statistically significant, effect”. Further, the “potency in inhibiting periodontal bone loss versus other LFA-1-ICAM-1 inhibitors” value in assay [1] (given locally or systemically) is recorded as “more potent”.

Regarding “human IL-17A: human IL-17A cytokine used to stimulate HUVEC”, the “Del-1 expression in human endothelial cells (HUVEC)” value in assay [3] is reported as “inhibited”.

B1: human Del-1: soluble human Del-1 from R&D Systems; human Del-1 amino acid sequence SEQ ID NO: 1 (protein, listed as Homo sapiens)
chain: MKRSVAVWLLVGLSLSVPQFGKGDICDPNPCENGGICLPGLADGSFSCECPDGFTDPNCSSVVEVASDEEEPTSAGPCTPNPCHNGGTCEISEAYRGDTFIGYVCKCPRGFNGIHCQHNINECEVEPCKNGGICTDLVANYSCECPGEFMGRNCQYKCSGPLGIEGGIISNQQITASSTHRALFGLQKWYPYYARLNKKGLINAWTAAENDRWPWIQINLQRKMRVTGVITQGAKRIGSPEYIKSYKIAYSNDGKTWAMYKVKGTNEDMVFRGNIDNNTPYANSFTPPIKAQYVRLYPQVCRRHCTLRMELLGCELSGCSEPLGMKSGHIQDYQITASSIFRTLNMDMFTWEPRKARLDKQGKVNAWTSGHNDQSQWLQVDLLVPTKVTGIITQGAKDFGHVQFVGSYKLAYSNDGEHWTVYQDEKQRKDKVFQGNFDNDTHRKNVIDPPIYARHIRILPWSWYGRITLRSELLGCTEEE
Take B1: in the assay on human neutrophils, the “LFA-1-dependent transendothelial migration of human neutrophils” value is “inhibited”.

(Values after patent US20140302027A1, “METHODS OF TREATING PERIODONTAL INFLAMMATION AND PERIODONTAL BONE LOSS” (United States of America as Represented by the Secretary, …, priority 2011, published 2014).)
